Here are results for seven molecules from ChEMBL document CHEMBL4184146, “Interrogating the Roles of Post-Translational Modifications of Non-Histone Proteins” (J Med Chem, 2018).

One assay deals with T1, Protein O-GlcNAcase (Rattus norvegicus, UniProt Q8VIJ5).
T1 sequence (Q8VIJ5 whole entry): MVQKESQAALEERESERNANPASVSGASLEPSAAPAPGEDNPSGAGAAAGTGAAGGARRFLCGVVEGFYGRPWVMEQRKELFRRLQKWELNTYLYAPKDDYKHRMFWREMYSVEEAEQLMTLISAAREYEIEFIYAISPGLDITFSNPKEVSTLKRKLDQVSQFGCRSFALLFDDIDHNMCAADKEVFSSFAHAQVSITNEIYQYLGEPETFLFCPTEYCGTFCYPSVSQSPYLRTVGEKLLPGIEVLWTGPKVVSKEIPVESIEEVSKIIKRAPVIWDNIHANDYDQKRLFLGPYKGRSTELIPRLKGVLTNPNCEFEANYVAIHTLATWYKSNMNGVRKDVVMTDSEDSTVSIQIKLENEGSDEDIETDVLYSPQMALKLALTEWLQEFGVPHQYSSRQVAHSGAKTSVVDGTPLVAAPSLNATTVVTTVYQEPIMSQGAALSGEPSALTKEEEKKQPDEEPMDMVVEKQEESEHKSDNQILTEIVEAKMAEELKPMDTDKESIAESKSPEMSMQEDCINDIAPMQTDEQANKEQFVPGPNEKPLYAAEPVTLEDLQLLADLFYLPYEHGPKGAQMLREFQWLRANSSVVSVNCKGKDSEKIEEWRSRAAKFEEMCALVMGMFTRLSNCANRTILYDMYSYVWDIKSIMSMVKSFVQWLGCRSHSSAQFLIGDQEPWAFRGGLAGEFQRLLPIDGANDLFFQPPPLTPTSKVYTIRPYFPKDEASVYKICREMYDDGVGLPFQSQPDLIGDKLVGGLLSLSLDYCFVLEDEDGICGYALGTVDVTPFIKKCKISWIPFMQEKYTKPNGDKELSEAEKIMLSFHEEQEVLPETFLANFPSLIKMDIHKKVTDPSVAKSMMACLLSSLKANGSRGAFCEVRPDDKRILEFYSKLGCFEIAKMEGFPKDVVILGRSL
In words: Inhibition of O-GlcNAcase in rat PC12 cells assessed as induction of OGlcNAcylation after 24 hrs by Western blot method. The format is cell-based.

The target of assay [1] is Protein farnesyltransferase (Homo sapiens, UniProt P49354+P49356). Description: Inhibition of FTase isolated from human Burkitt's lymphoma cells assessed as decrease in transfer of [3H]farnesyl from [3H]farnesyl PPi to H-Ras-CVLS.
A short description of assay [2]: Inhibition of SCF (SKP2) complex (unknown origin) expressed in baculovirus infected Sf9 cells assessed as decrease in phospho-p27 Kip1 ubiquitination preincubated for 10 to 45 mins followed by phospho-p27 Kip1 addition measured after 1 to 3 hrs by immunoblot method. On the set-up: species or system Homo sapiens.
For assay [3], the target named is Histone acetyltransferase p300 (Homo sapiens, UniProt Q09472). In words: Inhibition of full length His6-tagged recombinant p300 (unknown origin) expressed in baculovirus infected Sf21 cells using human histone as substrate preincubated for 10 mins followed by [3H]acetyl-CoA addition measured after 10 mins by liquid scintillation counting method.
Chain of Histone acetyltransferase p300 (Q09472 whole entry): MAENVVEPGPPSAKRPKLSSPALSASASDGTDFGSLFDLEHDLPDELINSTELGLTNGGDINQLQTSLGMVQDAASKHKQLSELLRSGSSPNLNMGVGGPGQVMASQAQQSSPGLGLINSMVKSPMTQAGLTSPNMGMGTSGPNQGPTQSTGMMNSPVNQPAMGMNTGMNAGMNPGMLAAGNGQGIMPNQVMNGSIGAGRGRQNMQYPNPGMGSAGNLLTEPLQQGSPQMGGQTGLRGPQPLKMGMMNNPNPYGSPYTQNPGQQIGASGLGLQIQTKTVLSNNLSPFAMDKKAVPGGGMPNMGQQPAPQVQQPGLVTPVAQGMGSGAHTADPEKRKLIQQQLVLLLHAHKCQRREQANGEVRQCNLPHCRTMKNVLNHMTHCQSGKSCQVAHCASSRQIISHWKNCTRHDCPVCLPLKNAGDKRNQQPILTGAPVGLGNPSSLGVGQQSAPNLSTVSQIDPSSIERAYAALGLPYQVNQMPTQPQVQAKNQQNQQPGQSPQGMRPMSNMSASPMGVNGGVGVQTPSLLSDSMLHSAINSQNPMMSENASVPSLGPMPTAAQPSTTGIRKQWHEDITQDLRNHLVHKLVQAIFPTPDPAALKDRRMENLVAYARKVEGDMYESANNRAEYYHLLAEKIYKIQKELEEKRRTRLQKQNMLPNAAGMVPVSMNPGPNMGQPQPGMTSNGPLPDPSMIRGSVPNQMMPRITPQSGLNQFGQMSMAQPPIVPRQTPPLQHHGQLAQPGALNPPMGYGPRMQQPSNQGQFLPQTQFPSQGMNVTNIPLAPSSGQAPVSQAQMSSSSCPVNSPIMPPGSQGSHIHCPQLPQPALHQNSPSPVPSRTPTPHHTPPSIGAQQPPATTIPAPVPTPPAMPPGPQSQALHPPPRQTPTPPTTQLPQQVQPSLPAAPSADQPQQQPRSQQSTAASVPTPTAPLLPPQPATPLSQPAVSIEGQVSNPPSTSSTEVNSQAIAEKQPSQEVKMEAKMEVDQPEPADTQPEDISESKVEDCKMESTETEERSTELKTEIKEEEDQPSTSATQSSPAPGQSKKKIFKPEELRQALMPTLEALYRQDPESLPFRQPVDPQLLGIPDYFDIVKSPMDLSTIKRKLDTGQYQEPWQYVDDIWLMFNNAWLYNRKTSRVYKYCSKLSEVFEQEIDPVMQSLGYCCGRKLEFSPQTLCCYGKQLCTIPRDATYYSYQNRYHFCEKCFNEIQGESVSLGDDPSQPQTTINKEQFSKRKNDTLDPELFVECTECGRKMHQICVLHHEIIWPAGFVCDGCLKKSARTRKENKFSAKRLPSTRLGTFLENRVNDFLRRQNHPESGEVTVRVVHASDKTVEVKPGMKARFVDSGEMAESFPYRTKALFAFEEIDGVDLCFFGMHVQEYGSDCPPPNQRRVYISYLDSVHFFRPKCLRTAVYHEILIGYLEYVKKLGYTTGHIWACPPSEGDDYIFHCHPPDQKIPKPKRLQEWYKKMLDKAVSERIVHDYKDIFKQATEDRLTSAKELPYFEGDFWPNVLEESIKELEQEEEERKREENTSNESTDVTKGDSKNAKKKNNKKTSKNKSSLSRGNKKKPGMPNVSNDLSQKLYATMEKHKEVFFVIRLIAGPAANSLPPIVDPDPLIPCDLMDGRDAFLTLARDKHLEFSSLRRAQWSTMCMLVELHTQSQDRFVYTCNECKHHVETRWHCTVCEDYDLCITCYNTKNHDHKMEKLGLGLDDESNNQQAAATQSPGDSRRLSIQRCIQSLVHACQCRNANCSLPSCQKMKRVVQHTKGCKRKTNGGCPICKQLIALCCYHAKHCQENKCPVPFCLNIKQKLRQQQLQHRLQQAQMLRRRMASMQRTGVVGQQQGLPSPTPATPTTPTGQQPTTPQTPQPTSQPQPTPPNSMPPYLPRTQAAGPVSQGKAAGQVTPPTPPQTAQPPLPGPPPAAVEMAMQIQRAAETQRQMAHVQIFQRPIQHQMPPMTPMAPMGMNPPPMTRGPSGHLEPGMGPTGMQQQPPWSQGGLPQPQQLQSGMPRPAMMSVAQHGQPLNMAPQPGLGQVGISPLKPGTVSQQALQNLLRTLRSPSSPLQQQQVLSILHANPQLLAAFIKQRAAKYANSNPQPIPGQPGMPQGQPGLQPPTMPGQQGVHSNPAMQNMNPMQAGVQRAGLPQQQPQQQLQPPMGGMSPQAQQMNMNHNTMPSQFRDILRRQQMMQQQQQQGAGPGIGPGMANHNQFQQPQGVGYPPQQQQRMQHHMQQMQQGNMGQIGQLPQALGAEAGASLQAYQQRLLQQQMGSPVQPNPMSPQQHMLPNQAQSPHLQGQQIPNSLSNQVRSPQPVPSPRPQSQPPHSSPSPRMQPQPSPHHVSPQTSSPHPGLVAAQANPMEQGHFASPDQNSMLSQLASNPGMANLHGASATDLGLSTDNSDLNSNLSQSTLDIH
In assay [4] the target is c-Jun N-terminal kinase, JNK (Homo sapiens, UniProt P45983+P53779+P45984). Description: Inhibition of JNK (unknown origin). The format is protein assay.
Assay [5] addresses Serine/threonine-protein kinase B-raf (Homo sapiens, UniProt P15056). In words: Inhibition of BRAF (unknown origin) using MEK1 K97R mutant as substrate preincubated for 60 to 120 mins followed by substrate addition measured after 2 hrs by TR-FRET assay. In general terms: In TR-FRET formats the signal depends on donor and acceptor labels being close together.

The structures appear in SMILES notation.

Chain of Serine/threonine-protein kinase B-raf (P15056 whole entry): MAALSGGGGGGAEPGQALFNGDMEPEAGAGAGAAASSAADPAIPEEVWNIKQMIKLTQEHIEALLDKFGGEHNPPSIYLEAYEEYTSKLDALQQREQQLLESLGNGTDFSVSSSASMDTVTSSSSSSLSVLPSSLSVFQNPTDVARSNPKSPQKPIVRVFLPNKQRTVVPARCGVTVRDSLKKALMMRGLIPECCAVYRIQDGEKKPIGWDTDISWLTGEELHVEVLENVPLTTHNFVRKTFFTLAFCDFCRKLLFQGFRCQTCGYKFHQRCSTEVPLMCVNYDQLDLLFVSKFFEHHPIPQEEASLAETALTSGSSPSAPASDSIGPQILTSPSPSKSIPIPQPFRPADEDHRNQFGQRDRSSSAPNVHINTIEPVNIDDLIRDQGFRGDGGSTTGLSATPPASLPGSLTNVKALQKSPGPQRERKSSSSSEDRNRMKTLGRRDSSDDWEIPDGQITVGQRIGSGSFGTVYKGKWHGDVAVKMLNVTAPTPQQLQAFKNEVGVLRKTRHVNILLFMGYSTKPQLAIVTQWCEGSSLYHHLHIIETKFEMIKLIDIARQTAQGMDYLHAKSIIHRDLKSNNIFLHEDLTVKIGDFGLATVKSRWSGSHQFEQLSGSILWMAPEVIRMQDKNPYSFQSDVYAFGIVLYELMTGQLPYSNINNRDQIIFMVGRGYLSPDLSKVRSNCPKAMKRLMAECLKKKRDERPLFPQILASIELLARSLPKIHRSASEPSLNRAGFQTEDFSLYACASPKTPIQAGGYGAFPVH

As to `CCNC1=N[C@@H]2[C@@H](O)[C@H](O)[C@@H](CO)O[C@@H]2S1`, the EC50 on Protein O-GlcNAcase was 30 nM. Take `COC(=O)[C@H](CCSC)NC(=O)c1ccc(NC[C@@H](N)CS)cc1-c1ccccc1`: in assay [1], the IC50 turned out to be 0.5 nM. With `COCC(=O)N[C@@H](Cc1ccc(-c2cc(Cl)cc(Cl)c2)cc1)[C@H](O)[C@@H](O)C(=O)O`, in assay [2], the IC50 was 1700 nM. In the case of `CSCC[C@@H](NC(=O)c1ccc(CNCc2c[nH]cn2)cc1-c1ccccc1C)C(=O)O`, the IC50 in assay [1] was 1.4 nM. In the case of `C=C(C)[C@H](CC=C(C)C)C[C@]12C[C@H](CC=C(C)C)C(C)(C)[C@](CC=C(C)C)(C(=O)C(C(=O)c3ccc(O)c(O)c3)=C1O)C2=O`, in assay [3], the IC50 is 7000 nM. In assay [4], `Nc1nnc(Sc2ncc([N+](=O)[O-])s2)s1` came in with an IC50 of 700 nM. On to `O=C1CCc2c(Oc3ccc4c(c3)[C@@H]3[C@H](O4)[C@H]3c3nc4ccc(C(F)(F)F)cc4[nH]3)ccnc2N1` [LIFIRAFENIB], for which half-maximal inhibition in assay [5] (IC50) was put at 23 nM.

As a reminder, the EC50 is the concentration giving half of the maximal effect. The term IC50 denotes the concentration that gives 50% inhibition.
